Measured values from ChEMBL document CHEMBL1158669, “Cytotoxic scalarane sesterterpenes from a sponge, Hyrtios erecta” (J Nat Prod, 1998).
Converted amounts (≈) assume the structure as drawn. One block for each compound: values may come before it.

What was measured:
[1] = system: P388; experiment: Antitumor activity against mouse P388 cells after 48 hrs by MTT assay; assay type: functional, cell-based; settings: P388, 48 h
[2] = system: MKN-7; experiment: Antitumor activity against human MKN7 cells after 48 hrs by MTT assay; assay type: functional, cell-based; settings: MKN-7, 48 h
[3] = system: MKN-74; experiment: Antitumor activity against human MKN74 cells after 48 hrs by MTT assay; assay type: functional, cell-based; settings: MKN-74, 48 h
[4] = system: P388; experiment: Antitumor activity against mouse P388 cells implanted in CDF1 mouse assessed as decrease in weight change at 1.0 mg/kg, ip; assay type: functional; parameters: scale not given: the % may be the effect or the level left; settings: route intraperitoneal
[5] = system: P388; experiment: Antitumor activity against mouse P388 cells implanted in CDF1 mouse assessed as increase in life span at 4.0 mg/kg, ip; assay type: functional; settings: route intraperitoneal
[6] = system: P388; experiment: Antitumor activity against mouse P388 cells implanted in CDF1 mouse assessed as increase in life span at 8.0 mg/kg, ip; assay type: functional; settings: route intraperitoneal
[7] = system: P388; experiment: Antitumor activity against mouse P388 cells implanted in CDF1 mouse assessed as decrease in weight change at 2.0 mg/kg, ip; assay type: functional; parameters: scale not given: the % may be the effect or the level left; settings: route intraperitoneal
[8] = Antitumor activity against human MKN1 cells after 48 hrs by MTT assay; assay type: functional, cell-based; settings: MKN-1, 48 h
[9] = system: P388; experiment: Antitumor activity against mouse P388 cells implanted in CDF1 mouse assessed as increase in life span at 2.0 mg/kg, ip; assay type: functional; settings: route intraperitoneal
[10] = system: P388; experiment: Antitumor activity against mouse P388 cells implanted in CDF1 mouse assessed as decrease in weight change at 8.0 mg/kg, ip; assay type: functional; parameters: scale not given: the % may be the effect or the level left; settings: route intraperitoneal
[11] = system: P388; experiment: Antitumor activity against mouse P388 cells implanted in CDF1 mouse assessed as decrease in weight change at 4.0 mg/kg, ip; assay type: functional; parameters: scale not given: the % may be the effect or the level left; settings: route intraperitoneal
[12] = system: P388; experiment: Antitumor activity against mouse P388 cells implanted in CDF1 mouse assessed as decrease in weight change at 0.5 mg/kg, ip; assay type: functional; parameters: scale not given: the % may be the effect or the level left; settings: route intraperitoneal
[13] = system: P388; experiment: Antitumor activity against mouse P388 cells implanted in CDF1 mouse assessed as increase in life span at 1.0 mg/kg, ip; assay type: functional; settings: route intraperitoneal
[14] = system: P388; experiment: Antitumor activity against mouse P388 cells implanted in CDF1 mouse assessed as increase in life span at 0.5 mg/kg, ip; assay type: functional; settings: route intraperitoneal

Structure (SMILES): CC1(C)C(=O)CC[C@]2(C)[C@H]3C[C@@H](O)[C@]4(C)[C@@H]5C(=CC[C@H]4[C@]3(C)CC[C@@H]12)CO[C@H]5O
IC50 [2]: 0.056 µg/mL (≈ 0.139 µM)
IC50 [3]: 0.0368 µg/mL (≈ 0.0914 µM)
Activity [4]: 2%
IC50 [1]: 0.0145 µg/mL (≈ 0.036 µM)
Activity [5]: 51.2%
Activity [6]: 74.4%
Activity [7]: 2.4%
IC50 [8]: 0.0577 µg/mL (≈ 0.143 µM)
Activity [9]: 31.4%
Activity [10]: 0.4%
Activity [11]: 0.9%
Activity [12]: 3%
Activity [13]: 32.6%
Activity [14]: 24.4%

Structure (SMILES): C[C@@H]1C[C@H]1[C@H](C)C[C@@H](O)[C@@]1([C@H]2CC[C@H]3[C@@H]4CC[C@H]5CC(=O)CC[C@]5(C)[C@H]4C[C@@H](O)[C@]23C)CO1 [ARAGUSTEROL A]
IC50 [1]: 0.022 µg/mL (≈ 0.048 µM)

Structure (SMILES): C[C@H](CC[C@](C)(O)[C@H]1CC[C@H]2[C@@H]3CC[C@H]4CC(=O)CC[C@]4(C)[C@H]3C[C@@H](O)[C@@]21C)[C@H]1C[C@@H]1C [ARAGUSTEROL B]
IC50 [1]: > 3.3 µg/mL

Structure (SMILES): C[C@H](C[C@@H](O)[C@](O)(CCl)[C@H]1CC[C@H]2[C@@H]3CC[C@H]4CC(=O)CC[C@]4(C)[C@H]3C[C@@H](O)[C@]12C)[C@H]1C[C@@H]1C [ARAGUSTEROL C]
IC50 [1]: 0.041 µg/mL (≈ 0.0828 µM)

Results, then the compound that gave them:

IC50 [1]: > 1 µg/mL
Structure (SMILES): CC(=O)O[C@@H]1C[C@@H]2[C@@]3(C)CCCC(C)(C)[C@@H]3CC[C@@]2(C)[C@@H]2CC=C3C(=O)O[C@@H](O)[C@@H]3[C@@]12C

IC50 [1]: > 1 µg/mL
Structure (SMILES): CC1(C)CCC[C@]2(C)[C@H]3C[C@@H](O)[C@]4(C)[C@H]5OC(=O)C=C5[C@@H](O)C[C@H]4[C@]3(C)CC[C@@H]12

IC50 [1]: 0.25 µg/mL (≈ 0.618 µM)
Structure (SMILES): CC1(C)[C@@H](O)CC[C@]2(C)[C@H]3C[C@@H](O)[C@]4(C)[C@@H]5C(=CC[C@H]4[C@]3(C)CC[C@@H]12)CO[C@H]5O

IC50 [1]: 0.505 µg/mL (≈ 1.13 µM)
Structure (SMILES): CC(=O)O[C@@H]1C[C@@H]2[C@@]3(C)CC[C@H](O)C(C)(C)[C@@H]3CC[C@@]2(C)[C@@H]2CC=C3CO[C@@H](O)[C@@H]3[C@@]12C

IC50 [1]: > 1 µg/mL
Structure (SMILES): CC1(C)CCC[C@]2(C)[C@H]3C[C@@H](O)[C@]4(C)[C@@H]5C(=CC[C@H]4[C@]3(C)CC[C@@H]12)CO[C@H]5O
